Test results as given in PMC9709406 (Frontiers in Pharmacology, 2022).
Where “and” joins values, the source holds several entries; their conditions need not be identical. Equal entries are not always repeated. Where two headings read alike, the source gives them in different places.

Experiments:
[1] = test system: H1975 cells; experiment: MTT assay for cell proliferation and cytotoxicity, H1975; assay type: cell-based, human; details: Homo sapiens, NCI-H1975, 48 h, MTT, 48 h, H1975, n = 5; read-out: IC50 48 h H1975
Excerpt: (§1) The human cancer cells (H1650, H1975, KYSE70, KYSE410 and KYSE450) were purchased from the Type Culture Collection of the Chinese Academy of Sciences (Shanghai, China). The human immortalized normal esophageal epithelial cell line SHEE was donated by Dr. Enmin Li from the Laboratory of Tumor Pathology (Shantou University Medical College, Shantou, Guangdong, China). Drug-resistant cells (H1650TR, H1975OR, KYSE70TR, KYSE410TR and KYSE450TR) were induced by China-US (Henan) Hormel Cancer Institute. The cellswere cultured in RPMI-1640 complete growth medium containing 100 U/mL penicillin-streptomycin and 10% FBS. Based on the above medium formula, 100 nm/L paclitaxel was added in taxol-resistant cells, 100 nm/L gefitinib was added in gefitinib-resistant cells. The cells were incubated at 37 °C in an atmosphere containing 5% of CO2. The compounds were dissolved in DMSO to make a 50 mM stock solution and were diluted to the concentration of working solutions with complete growth medium before administration.
Cells were seeded in 96-well plates with 2,200–2,500 cells/well in100 μL. One day after seeding, test compounds with the concentration between 0 and 50 μM were added with 0.1% DMSO as control. Five multiple wells for each concentration. […] The absorbance at 490 nm was measured using a microplate reader (Thermo).

[2] = test system: KYSE410 cells; experiment: MTT assay, KYSE410; assay type: cell-based, human; details: for IC50: Homo sapiens, KYSE-410, MTT, 48 h, KYSE410, n = 5, read-out: IC50 48 h KYSE410
Excerpt: as §1
(§2) Cells were seeded in 96-well plates with 2,200–2,500 cells/well in100 μL. One day after seeding, test compounds with the concentration between 0 and 50 μM were added with 0.1% DMSO as control. Five multiple wells for each concentration. After 48 h, MTT was added and incubated in the plate for 1–4 h in the incubator. The absorbance at 490 nm was measured using a microplate reader (Thermo).

[3] = target: T1, EGFR (Homo sapiens, UniProt P00533); experiment: EGFR kinase assay (ELISA); assay type: biochemical; details: 25°C
T1 construct: purchased Active MOTIF
Description: Kinase inhibitory activities of the compounds were evaluated using the Protein Tyrosine Kinase Assay Kit (SignalChem (British Columbia, Canada)). The kinase enzyme of EGFR was purchased from Active MOTIF. The ELISA experiments were carried out according the instructions of the kit. Active kinases were incubated with indicated compounds in 1 × reaction buffer containing 20 μM substrate at 25°C for 1 h and 2 h, respectively. The absorbance was read with a multimode plate reader (PerkinElmer, United States) at 450 nm.

[4] = test system: KYSE70 cells; experiment: MTT assay, KYSE70; assay type: cell-based, human; details: for IC50: Homo sapiens, KYSE-70, MTT, 48 h, KYSE70, n = 5
Excerpt: as §1, §2

[5] = test system: KYSE450 cells; experiment: MTT assay, KYSE450; assay type: cell-based, human; details: for IC50: Homo sapiens, KYSE-450, MTT, 48 h, KYSE450, n = 5, read-out: IC50 48 h KYSE450; for absorbance 490 nm, single well / mean absorbance 490 nm (row G) / mean absorbance 490 nm minus background (row H): KYSE450
Excerpt: as §1, §2

[6] = test system: H1650 cells; experiment: MTT assay for cell proliferation and cytotoxicity, H1650; assay type: cell-based; details: Homo sapiens, NCI-H1650, 48 h, H1650, n = 5
Excerpt: as §1, §2

[7] = test system: SHEE cells; experiment: MTT assay, normal esophageal epithelial cell line SHEE; assay type: cell-based; details: Homo sapiens, 48 h, n = 5
Excerpt: as §1, §2

[8] = incubation 1 h, read-out: IC50 EGFR 1 h
[9] = incubation 2 h, read-out: IC50 EGFR 2 h
[10] = concentration 12.5 (unit not given)
[11] = concentration 25 (unit not given)
[12] = concentration 50 (unit not given)
[13] = concentration 100 (unit not given)

T1 sequence (P00533 25-1210): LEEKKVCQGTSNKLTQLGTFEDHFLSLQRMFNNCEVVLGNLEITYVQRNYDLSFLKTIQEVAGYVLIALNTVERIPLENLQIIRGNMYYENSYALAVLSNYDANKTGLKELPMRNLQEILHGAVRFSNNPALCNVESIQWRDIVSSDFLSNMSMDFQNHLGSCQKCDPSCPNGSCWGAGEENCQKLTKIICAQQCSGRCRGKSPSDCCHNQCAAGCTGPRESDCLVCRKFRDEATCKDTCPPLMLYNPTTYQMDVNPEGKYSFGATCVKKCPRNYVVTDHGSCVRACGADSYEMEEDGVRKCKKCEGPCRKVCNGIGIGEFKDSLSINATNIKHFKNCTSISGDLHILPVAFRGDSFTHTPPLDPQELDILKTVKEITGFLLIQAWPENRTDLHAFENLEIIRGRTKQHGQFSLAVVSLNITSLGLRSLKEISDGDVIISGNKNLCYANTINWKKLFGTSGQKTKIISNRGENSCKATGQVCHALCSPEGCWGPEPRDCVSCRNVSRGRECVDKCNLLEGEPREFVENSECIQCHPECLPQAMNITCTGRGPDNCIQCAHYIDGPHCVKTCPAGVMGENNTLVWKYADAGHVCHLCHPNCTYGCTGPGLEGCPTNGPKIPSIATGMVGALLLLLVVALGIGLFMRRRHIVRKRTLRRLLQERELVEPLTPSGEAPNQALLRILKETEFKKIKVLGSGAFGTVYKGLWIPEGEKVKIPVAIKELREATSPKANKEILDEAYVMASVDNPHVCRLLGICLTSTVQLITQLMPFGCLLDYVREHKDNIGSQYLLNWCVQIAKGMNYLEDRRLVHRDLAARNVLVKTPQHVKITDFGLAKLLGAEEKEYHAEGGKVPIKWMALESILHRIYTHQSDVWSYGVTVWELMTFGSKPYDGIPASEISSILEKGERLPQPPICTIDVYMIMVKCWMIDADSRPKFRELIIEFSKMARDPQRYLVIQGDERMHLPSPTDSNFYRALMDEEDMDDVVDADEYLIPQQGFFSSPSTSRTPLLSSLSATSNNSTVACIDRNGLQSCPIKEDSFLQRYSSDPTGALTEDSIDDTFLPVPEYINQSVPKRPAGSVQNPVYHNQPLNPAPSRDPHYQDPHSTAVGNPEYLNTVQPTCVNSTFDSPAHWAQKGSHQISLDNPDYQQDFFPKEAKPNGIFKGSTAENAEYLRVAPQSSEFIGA

Row | Structure (SMILES) | IC50 [1] [µM] | IC50 [2] [µM] | blank-corrected absorbance 490 nm relative to control (fraction) ([2]; KYSE410, concentration 12.5) | inhibition (1 minus fraction of control) ([2]; KYSE410, concentration 12.5) | blank-corrected absorbance 490 nm relative to control (fraction) ([2]; KYSE410, concentration 25) | inhibition (1 minus fraction of control) ([2]; KYSE410, concentration 25) | blank-corrected absorbance 490 nm relative to control (fraction) ([2]; KYSE410, concentration 50) | inhibition (1 minus fraction of control) ([2]; KYSE410, concentration 50) | blank-corrected absorbance 490 nm relative to control (fraction) ([2]; KYSE410, concentration 100) | inhibition (1 minus fraction of control) ([2]; KYSE410, concentration 100) | IC50 [3, 8] [µM] | IC50 [3, 9] [µM] | IC50 [4] [µM] | blank-corrected absorbance 490 nm relative to control (fraction) ([4]; KYSE70, concentration 12.5) | inhibition (1 minus fraction of control) ([4]; KYSE70, concentration 12.5) | blank-corrected absorbance 490 nm relative to control (fraction) ([4]; KYSE70, concentration 25) | inhibition (1 minus fraction of control) ([4]; KYSE70, concentration 25) | blank-corrected absorbance 490 nm relative to control (fraction) ([4]; KYSE70, concentration 50) | inhibition (1 minus fraction of control) ([4]; KYSE70, concentration 50) | blank-corrected absorbance 490 nm relative to control (fraction) ([4]; KYSE70, concentration 100) | further results
1 | Clc1ccccc1-n1cc(-c2cccc(Nc3ncnc4cc5c(cc34)OCCOCCOCCO5)c2)nn1 [compound 3e] | 13.1 ± 1.02 | 11.7 ± 1.01 | 0.4649 | 0.5351 | 0.2124 | 0.7876 | 0.02952 | 0.9705 | 0.05985 | 0.9402 | 1.29 | 4.41 | 7.75 ± 0.68 | 0.1936 | 0.8064 | 0.0586 | 0.9414 | 0.07267 | 0.9273 | 0.08298 | inhibition (1 minus fraction of control) ([4]; KYSE70, concentration 100): 0.917; IC50 [5]: 21.8 ± 1.47 µM; absorbance 490 nm, single well [5, 10]: 0.5603 and 0.5422 and 0.5648 and 0.5469; mean absorbance 490 nm (row G) [5, 10]: 0.5535; mean absorbance 490 nm minus background (row H) [5, 10]: 0.4989; absorbance 490 nm, single well [5, 11]: 0.3988 and 0.3524 and 0.3487 and 0.3334; mean absorbance 490 nm (row G) [5, 11]: 0.3583; mean absorbance 490 nm minus background (row H) [5, 11]: 0.3036; absorbance 490 nm, single well [5, 12]: 0.0685 and 0.0639 and 0.0619 and 0.065 and 0.0672; mean absorbance 490 nm (row G) [5, 12]: 0.0653; mean absorbance 490 nm minus background (row H) [5, 12]: 0.01062; absorbance 490 nm, single well [5, 13]: 0.0642 and 0.0659 and 0.0644 and 0.0663; mean absorbance 490 nm (row G) [5, 13]: 0.0652; mean absorbance 490 nm minus background (row H) [5, 13]: 0.01052; IC50 [6]: 5.61 ± 0.3 µM; IC50 [7]: 10.3 ± 0.84 µM; melting point: 125 to 127 °C
2 | COc1ccccc1-n1cc(-c2cccc(Nc3ncnc4cc5c(cc34)OCCOCCOCCO5)c2)nn1 [compound 3d] | 19.4 ± 1.21 | 8.67 ± 0.71 | 0.2787 | 0.7213 | -0.00175 | 1.002 | 0.004317 | 0.9957 | 0.02345 | 0.9766 | 5.14 | 26 | 7.35 ± 0.7 | 0.1496 | 0.8504 | 0.05438 | 0.9456 | 0.05391 | 0.9461 | 0.08017 | inhibition (1 minus fraction of control) ([4]; KYSE70, concentration 100): 0.9198; IC50 [5]: 13.5 ± 1.21 µM; absorbance 490 nm, single well [5, 10]: 0.4487 and 0.4214 and 0.4264 and 0.4518; mean absorbance 490 nm (row G) [5, 10]: 0.4371; mean absorbance 490 nm minus background (row H) [5, 10]: 0.3824; absorbance 490 nm, single well [5, 11]: 0.0614 and 0.062 and 0.0618; mean absorbance 490 nm (row G) [5, 11]: 0.06165; mean absorbance 490 nm minus background (row H) [5, 11]: 0.00697; absorbance 490 nm, single well [5, 12]: 0.0565 and 0.0602 and 0.0592 and 0.0604; mean absorbance 490 nm (row G) [5, 12]: 0.05908; mean absorbance 490 nm minus background (row H) [5, 12]: 0.004395; absorbance 490 nm, single well [5, 13]: 0.0606 and 0.0657 and 0.0613 and 0.0623; mean absorbance 490 nm (row G) [5, 13]: 0.06248; mean absorbance 490 nm minus background (row H) [5, 13]: 0.007795; IC50 [6]: 10.8 ± 0.89 µM; IC50 [7]: 7.2 ± 0.71 µM; melting point: 121 to 124 °C
3 | Clc1ccc(-n2cc(-c3cccc(Nc4ncnc5cc6c(cc45)OCCOCCOCCO6)c3)nn2)cc1 [compound 3b] | > 50 | 10.7 ± 0.86 | 0.4136 | 0.5864 | 0.4139 | 0.5861 | 0.3164 | 0.6836 | 0.1744 | 0.8256 | 3.26 | 71.7 | 8.85 ± 0.67 | 0.2939 | 0.7061 | 0.2786 | 0.7214 | 0.1882 | 0.8118 | 0.1691 | inhibition (1 minus fraction of control) ([4]; KYSE70, concentration 100): 0.8309; IC50 [5]: 11.6 ± 1.02 µM; IC50 [6]: 7.81 ± 0.46 µM; IC50 [7]: 6.03 ± 0.48 µM; melting point: 132 to 135 °C
